Laboratory results published in patent publication US7425565B2, “Use of benzothiopenes to treat and prevent prostate cancer” (Cedars-Sinai Medical Center, priority 2002, dated 2008).
Entries after “also recorded” stand apart in the source; their conditions may differ. Where a name gives a salt, the structure may show the parent alone.

Experiments:
[1] = system: androgen-independent prostate cancer; test: Treatment of male patients with androgen-independent prostate cancer (Example 1); assay type: in vivo, human
Description: Three male patients were selected for treatment on the basis of established diagnosis with prostate cancer. All three patients had failed standard androgen withdrawal therapy. Average prostate-specific antigen (“PSA”) levels for each patient at the beginning of treatment was about 20-30 ng/ml. Hormone ablative therapy, in some cases aggressively administered as long as 36 months, had failed, manifested by a continued rise in PSA levels in each patient. […] Each patient continued to receive luteinizing hormone-releasing hormone (“LHRH”)-agonist therapy, despite tumor growth in its presence. This is considered standard therapy, as tumor growth is likely to be more aggressive if testosterone levels were allowed to return to normal in these patients.

[2] = system: human prostate tumor cells (CWR22R); test: Inhibition of tumor growth in androgen-independent xenograft model (CWR22R); assay type: in vivo, nude mice; details: 0.85 mg/kg daily s.c., after 30 days
Text: The inventor used an androgen-independent xenograft model of human prostate tumor cells (CWR22R) to raise tumors in male and female nude mice. Tumors developed over a period of 2-3 weeks into palpable masses. 10 mice were randomly assigned to a treatment group and 10 mice were assigned to a control group. […] Mice in the control group received an injection of saline solution. After 30 days, tumors from surviving mice were surgically removed and visibly examined. Tumor size was reduced by 60% in mice from the treated group as compared to mice from the control group and female hosts.

[3] = system: androgen-independent prostate cancer; details: several previous clinical trials; cited from earlier work
MSKPC9 tumor xenografts = test: Growth of androgen independent MSKPC9 tumor xenografts; assay type: in vivo, nude athymic BALB/c male mice; details: 40 mg/kg 5x/wk p.o., orchiectomized mice
Description: Xenograft studies were performed as described in D. B. Agus et al., “Response of prostate cancer to anti-Her-2/neu antibody in androgen-dependent and -independent human xenograft models,” Cancer Res. 59(19):4761-4764 (1999). Orchiectomized seven- to eight-week-old nude athymic BALB/c male mice were obtained from the National Cancer Institute and maintained in pathogen-free conditions. Mice were inoculated subcutaneously (“s.c.”) with minced tumor tissue together with […] reconstituted basement membrane (available from BD Biosciences Discovery Labware; Bedford, Mass.) from the established androgen independent (“AI”) MSKPC9 xenograft cell lines; cell lines are described in M. Nagabhushan et al., “CWR22: the first human prostate cancer xenograft with strongly androgen-dependent and relapsed strains both in vivo and in soft agar,” Cancer Res. 56(13):3042-3046 (1996), and D. B. Agus et al., “Prostate cancer cell cycle regulators: response to androgen withdrawal and development of androgen independence,” J. Natl. Cancer Inst. 91(21):1869-76 (1999).
Tumors were measured twice weekly with vernier calipers, and tumor volumes were calculated by the formula (π/6)×(larger diameter)×(smaller diameter)^2, described in M. F. Press et al., “HER-2/neu gene amplification characterized by fluorescence in situ hybridization: poor prognosis in node-negative breast carcinomas,” J. Clin Oncol. […]

PSA = PSA levels in animals with MSKPC9 xenografts (enzymatic immunoassay); assay type: in vivo, nude athymic BALB/c male mice
Description: Levels of PSA in the blood of implanted animals were determined using an enzymatic immunoassay kit (obtained from American Qualex; San Clemente, Calif.). Blood samples were obtained prior to treatment by a small incision in the dorsal tail vein to collect 50 μl of blood using a serum-separator tube, or via a cardiac draw at sacrifice.

ER-β mRNA = test: Real-time RT-PCR of MSKPC9 xenograft tumors, ER-β mRNA; assay type: in vivo; details: MSKPC9 tumor xenografts, treated vs control
Description: Total RNA was extracted from prostate tumors using TRIZOL reagent (available from Invitrogen Corporation; Carlsbad, Calif.). DNase I (obtained from Ambion, Inc.; Austin, Tex.) was used to rid the samples of any extraneous DNA that might interfere with the reaction. The yield was quantified spectrophotometrically. Total RNA was reverse-transcribed into cDNA and PCR was performed in the same reaction by using TAQMAN One-Step RT-PCR Master Mix Reagents Kit (obtained from Applied Biosystems; Foster City, Calif.; hereinafter “Applied Biosystems”). Probes were labeled with 6-FAM on the 5′ end and TAMRA on the 3′ end. β-actin was used as the endogenous control and normalizer. The primer pairs used are depicted in Table 1, as follows:
The PCR cycling conditions were performed for all of the samples as follows: 30 minutes at 48° C. for RT step; 10 minutes at 95° C. for […] GOLD Activation (available from Applied Biosystems); and 40 cycles for the melting (95° C., 15 seconds), and annealing/elongation (60° C. for one minute) steps. PCR reactions for each template were done in triplicate using 1 μg of total mRNA per sample. Each gene-specific primer pair was tested on standard 384-well plates. […]
The comparative Ct method (PE Applied Biosystems) was used to determine relative quantification of gene expression for each gene compared with the β-actin control. […]

[4] = system: androgen-independent prostate cancer (AIPC); test: Clinical study of raloxifene in androgen-independent prostate cancer: response and survival; assay type: in vivo, human
Text: Between August 2001 and July 2002, twenty-one patients were enrolled into the study at the Prostate Cancer Center of Cedars-Sinai Medical Center in Los Angeles, Calif. Patients who were eligible for the study were men who had histologically confirmed adenocarcinoma of the prostate and confirmed disease progression after hormonal therapy. Patients were required to have progression of disease as evidenced by CT scan or rising PSA on two successive measurements after discontinuation of anti-androgen therapy. In addition, patients receiving androgen receptor-blocking agents as their last form of therapy had to have confirmed disease progression after drug withdrawal. Nonsurgically castrated patients continued to receive LHRH agonist while on study to maintain castrate levels of serum testosterone.
Both patients with measurable disease by either bone scan or CT scan, and evaluable disease evidenced by rising PSA were included in the study. Patients whose only evidence of disease progression was rising PSA had to have an increasing PSA on any two determinations drawn at two least weeks apart, with a greater than 20% increase from the baseline value. Other eligibility criteria included: Karnofsky performance status >70%, life expectancy >12 weeks (with at least four weeks since major surgery or radiation therapy), and at least 12 weeks for treatment with strontium-89, rhenium, or samarium-153. […] Patients with a history of uncontrolled or severe cardiovascular disease (e.g., inadequately uncontrolled hypertension, congestive heart failure, angina, or myocardial infarction within the previous year), a history of thromboembolism, a history of biliary colic or untreated cholethiasis were excluded. Patients with brain metastasis, clinical signs of brain involvement or leptomeningeal disease, dementia, psychoses, or other significant impairment of mental status were excluded. Patients with a history of another malignancy during the past five years (other than non-melanomatous skin cancer or in situ stage T1a bladder cancer), patients with active infections requiring antibiotics, or patients on concurrent commercial or investigational antineoplastic therapies were excluded. No concomitant use of prostata or saw palmetto was permitted.
(§1) Response to therapy was assessed after the first two months of therapy and then monthly thereafter. Toxicity was assessed monthly at each study visit. […] A partial response (“PR”) required a decrease by >50% of the sum of the products of the perpendicular diameters for all measurable lesions lasting at least one month, no appearance of new lesions, and a reduction in serum PSA by >50% on two consecutive occasions at least one month apart. For patients being evaluated by bone metastases, a PR required a reduction in serum PSA by >50% on two consecutive occasions at least one month apart an improvement in bone scan (reduction in intensity or size of one or more metastatic foci and no new foci of radionuclide uptake unless due to […] healing documented on plain radiograph, CT scan, or MRI scan). During this time there should have been no cancer-associated deterioration in weight, performance status, or symptoms. Progressive disease (“PD”) was defined by any of the following: (1) increase >25% in the sum of the products of the perpendicular diameters of bidimensionally measurable lesions in the sum of the transverse diameters of unidimensionally measurable lesions, (2) the appearance of new lesions, and (3) by the increase in serum PSA >50% over baseline as documented on two successive measurements >28 days apart. […] For PD to be scored by PSA criteria alone, a confirmatory PSA determination was required and obtained two weeks after the value representing a >50% increase. Patients who had improvement in one objective parameter while meeting the criteria for PD by another parameter were scored as having PD.
Treatment was administered with monthly lab draws and follow-up visits with the physician. […]

[5] = Clinical study of raloxifene: toxicity (NCI Common Toxicity Criteria, v2.0); assay type: in vivo, human
Description: as §1
Treatment was administered with monthly lab draws and follow-up visits with the physician. […] Patients received 1 mg oral COUMADIN daily (or 0.5 mg oral COUMADIN daily if patients were already taking aspirin).
The reported urinary tract infection (“UTI”) (1) and hematuria (1) were thought to be related to the patient's underlying disease. Two grade 3 events were reported: a grade 3 arthralgia/myalgia thought to be related to the patient's recent injury, and a grade 3 elevated creatinine that was attributed to the patient's disease progression.

[6] = EVISTA package insert; cited from earlier work

SMILES: O=C(c1ccc(OCCN2CCCCC2)cc1)c1c(-c2ccc(O)cc2)sc2cc(O)ccc12 [raloxifene HCl, Raloxifene hydrochloride]
- bone scan of the longest treated patient ([1]; 17 months since beginning therapy): improvement in their bone scan
- continued PSA of the longest treated patient ([1]; 17 months since beginning therapy, 60 mg/day orally): < 0.4 ng/mL
- decline of PSA levels ([1]; three patients, 60 mg orally once a day for a minimum of 30 days, continued LHRH-agonist therapy): > 50%
- reduction of tumor size vs control group [2]: 60%

SMILES: CC/C(=C(\c1ccccc1)c1ccc(OCCN(C)C)cc1)c1ccccc1 [tamoxifen]
- effect on androgen-independent prostate cancer [3]: no effect

SMILES: O=C(c1ccc(OCCN2CCCCC2)cc1)c1c(-c2ccc(O)cc2)sc2cc(O)ccc12 [raloxifene]
- tumor stabilization (non-progression), leveling off of rising serum PSA ([1]; majority of patients treated): tumor stabilization occurred
- mean tumor volume vs control group (FIG. 1A) (MSKPC9 tumor xenografts): reduction in mean tumor volume; also recorded: tumors were smaller
- mean tumor weight vs control group (FIG. 1B) (MSKPC9 tumor xenografts): reduction in mean tumor weight
- PSA (per tumor volume) (FIG. 3) (PSA; MSKPC9 tumor xenografts, raloxifene treatment): increasing
- levels of PSA in the blood of implanted animals (FIG. 3) (PSA; MSKPC9 xenograft animals treated with raloxifene): rising PSA levels
- ER-β mRNA, difference between treatment groups (ER-β mRNA): no difference
- improvement in soft tissue or bone disease ([4]; 60 mg oral daily): No improvement in soft tissue or bone disease was observed
- median time to disease progression ([4]; 60 mg oral daily): 8.3 weeks
- patients with progressive disease at the first evaluation time point ([4]; 60 mg oral daily): thirteen of the eighteen
- patients with stable disease at the first evaluation time point ([4]; 60 mg oral daily): five of eighteen
- time to disease progression, range ([4]; 60 mg oral daily): 2.9-24.71 weeks
- progression of soft tissue or osseous disease ([4]; 60 mg oral daily, first evaluation time point): No progression of soft tissue or osseous disease was observed
- patients alive ([4]; as of July, 2003, 19 of 21): 90%
- median survival ([4]; at time of analysis (November, 2002)): 10.5 months
- patients discontinued due to progressive disease (rising PSA) at the second evaluation point ([4]; of the five patients with stable disease): four
- severity of most drug related toxicities reported ([5]; 60 mg oral daily): mild (grade 1-2)
- tolerability ([5]; 60 mg oral daily, with low dose COUMADIN): well tolerated
- Patients experiencing drug-related toxicity: Anemia ([5]; Grade 1): 2 patients
- Patients experiencing drug-related toxicity: Arthralgia/Myalgia ([5]; Grade 1): 2 patients
- Patients experiencing drug-related toxicity: Bicarbonate ([5]; Grade 1): 1 patients
- Patients experiencing drug-related toxicity: Bone Pain ([5]; Grade 1): 1 patients
- Patients experiencing drug-related toxicity: Diarrhea ([5]; Grade 1): 1 patients
- Patients experiencing drug-related toxicity: Edema ([5]; Grade 1): 1 patients
- Patients experiencing drug-related toxicity: Fatigue/Malaise ([5]; Grade 1): 1 patients
- Patients experiencing drug-related toxicity: Hematuria ([5]; Grade 1): 1 patients
- Patients experiencing drug-related toxicity: Hot flashes ([5]; Grade 1): 2 patients
- Patients experiencing drug-related toxicity: Hypercholesterolemia ([5]; Grade 1): 2 patients
- Patients experiencing drug-related toxicity: Hyperglycemia ([5]; Grade 1): 1 patients
- Patients experiencing drug-related toxicity: Hypoalbuminemia ([5]; Grade 1): 2 patients
- Patients experiencing drug-related toxicity: Hypoglycemia ([5]; Grade 1): 1 patients
- Patients experiencing drug-related toxicity: Increased Alkaline Phosphatase ([5]; Grade 1): 3 patients
- Patients experiencing drug-related toxicity: Increased Creatinine ([5]; Grade 1): 1 patients
- Patients experiencing drug-related toxicity: Increased SGOT (AST) ([5]; Grade 1): 1 patients
- Patients experiencing drug-related toxicity: Nausea/Vomiting ([5]; Grade 1): 1 patients
- Patients experiencing drug-related toxicity: Rash ([5]; Grade 1): 1 patients
- Patients experiencing drug-related toxicity: UTI ([5]; Grade 1): 1 patients
- Patients experiencing drug-related toxicity: Anemia ([5]; Grade 2): 1 patients
- Patients experiencing drug-related toxicity: Bone Pain ([5]; Grade 2): 1 patients
- Patients experiencing drug-related toxicity: Constipation ([5]; Grade 2): 2 patients
- Patients experiencing drug-related toxicity: Fatigue/Malaise ([5]; Grade 2): 1 patients
- Patients experiencing drug-related toxicity: Hypertriglyceridemia ([5]; Grade 2): 1 patients
- Patients experiencing drug-related toxicity: Hypotension ([5]; Grade 2): 1 patients
- Patients experiencing drug-related toxicity: Nausea/Vomiting ([5]; Grade 2): 1 patients
- Patients experiencing drug-related toxicity: Arthralgia/Myalgia ([5]; Grade 3): 1 patients
- Patients experiencing drug-related toxicity: Hyperglycemia ([5]; Grade 3): 1 patients
- Patients experiencing drug-related toxicity: Increased Creatinine ([5]; Grade 3): 1 patients
- tolerability in previous clinical studies [6]: well tolerated
